Data from ChEMBL document CHEMBL3045228, “QSAR study of a series of acyl coenzyme A (CoA): cholesterol acyltransferase inhibitors using genetic function approximation” (Med Chem Res, 2011).

Assay: Inhibition of Acyl-coenzyme A:cholesterol acyltransferase (unknown origin) assessed as intracellular cholesterol esterification by cell based assay
Conditions: Homo sapiens

| IC50 (read-out: IC50) [nM] | IC50 (read-out: pIC50 (converted)) [nM] | SMILES |
| --- | --- | --- |
| 550 | 550 | CCCCCC(C)N(Cc1ccc(OCC(C)C)cc1)C(Nc1ccc(OC)cc1OC)=C1C(=O)OC(C)(C)OC1=O (centres undefined) |
| 350 | 350 | CCCCCC(C)N(Cc1ccc(CC(C)C)cc1)C(Nc1ccc(N(C)C)cc1C)=C1C(=O)OC(C)(C)OC1=O (centres undefined) |
| 1300 | 1300 | CC(C)CCc1ccc(CN(C(Nc2ccc(N(C)C)cc2)=C2C(=O)OC(C)(C)OC2=O)C(CC(C)C)CC(C)C)cc1 |
| 90 | 89.9 | CCCCCC(C)N(Cc1ccc(OCC(C)C)cc1)C(Nc1ccc(N(C)C)cc1)=C1C(=O)OC(C)(C)OC1=O (centres undefined) |
| 44 | 44 | CCCCCCC(CCCCCC)N(Cc1ccc(CC(C)C)cc1)C(Nc1ccc(N(C)C)cc1)=C1C(=O)OC(C)(C)OC1=O |
| 370 | 370 | CC(C)CCOc1ccc(CCCCCCCCNC(Nc2ccc(N(C)C)cc2)=C2C(=O)OC(C)(C)OC2=O)cc1 |
| 190 | 640 | CCCCC(CC)N(Cc1ccc(CC(C)(C)C)cc1)C(Nc1ccc(N(C)C)cc1)=C1C(=O)OC(C)(C)OC1=O (centres undefined) |
| 410 | 410 | CCCCCCOc1ccc(NC(=C2C(=O)OC(C)(C)OC2=O)N(Cc2ccc(CC(C)C)cc2)C(C)CCCCC)cc1 (centres undefined) |
| 240 | 240 | CCCCCC(C)N(Cc1ccc(CC(C)C)cc1)C(Nc1ccc(OC)cc1OC)=C1C(=O)OC(C)(C)OC1=O (centres undefined) |
| 230 | 230 | CCCCCC(C)N(Cc1ccc(C(C)(C)C)cc1)C(Nc1ccc(OCCCC)cc1)=C1C(=O)OC(C)(C)OC1=O (centres undefined) |
| 690 | 690 | CCCCOc1ccc(NC(=C2C(=O)OC(C)(C)OC2=O)N(Cc2ccc(C(C)(C)C)cc2)C(C)CCCC(C)C)cc1 (centres undefined) |
| 270 | 270 | CC(C)CCCC(C)N(Cc1ccc(CC(C)C)cc1)C(Nc1ccc(N(C)C)cc1)=C1C(=O)OC(C)(C)OC1=O (centres undefined) |
| 260 | 260 | CCCCCc1ccc(CN(C(Nc2ccc(N(C)C)cc2)=C2C(=O)OC(C)(C)OC2=O)C(C)CCCCC)cc1 (centres undefined) |
| 210 | 210 | CCCCCC(C)N(Cc1ccc(OCCC(C)C)cc1)C(Nc1ccc(N(C)C)cc1)=C1C(=O)OC(C)(C)OC1=O (centres undefined) |
| 160 | 160 | CCCCCC(C)N(Cc1ccc(CCC(C)C)cc1)C(Nc1ccc(N(C)C)cc1C)=C1C(=O)OC(C)(C)OC1=O (centres undefined) |
| 5200 | 5200 | CC(C)Cc1ccc(CN(C(Nc2ccc(N(C)C)cc2)=C2C(=O)OC(C)(C)OC2=O)C(C)CCCC(C)(C)O)cc1 (centres undefined) |
| 250 | 250 | CCCCCC(C)N(Cc1ccc(C(C)(C)C)cc1)C(Nc1ccc(N(C)C)cc1)=C1C(=O)OC(C)(C)OC1=O (centres undefined) |

Further lines, the compound ahead of its results:

| SMILES | IC50 (read-out: IC50) [nM] | IC50 (read-out: pIC50 (converted)) [nM] |
| --- | --- | --- |
| COc1ccc(NC(NCCCCCCCCc2ccc(C(C)(C)C)cc2)=C2C(=O)OC(C)(C)OC2=O)c(OC)c1 | 900 | 899 |
| CC1(C)OC(=O)C(=C(NCCCCCCCCc2ccc(C(C)(C)C)cc2)Nc2ccc(Oc3ccccc3)cc2)C(=O)O1 | 920 | 920 |
| COc1ccc(NC(=C2C(=O)OC(C)(C)OC2=O)N(Cc2ccc(CCC(C)C)cc2)C(CC(C)C)CC(C)C)c(OC)c1 | 1300 | 1300 |
| COc1ccc(NC(=C2C(=O)OC(C)(C)OC2=O)N(Cc2ccc(CC(C)C)cc2)C(C)CCCC(C)C)c(OC)c1 (centres undefined) | 370 | 370 |
| COc1ccc(NC(=C2C(=O)OC(C)(C)OC2=O)N(Cc2ccc(C(C)(C)C)cc2)C(C)CCCC(C)C)c(OC)c1 (centres undefined) | 230 | 230 |
| COc1ccc(NC(NCCCCCCCCCCCc2ccc(C(C)(C)C)cc2)=C2C(=O)OC(C)(C)OC2=O)c(OC)c1 | 2300 | 2300 |
| CCCCCCOc1ccc(NC(NCCCCCCCCc2ccc(C(C)(C)C)cc2)=C2C(=O)OC(C)(C)OC2=O)cc1 | 500 | 500 |
| COc1ccc(NC(NCCCCCCCCc2ccc(OCCC(C)C)cc2)=C2C(=O)OC(C)(C)OC2=O)c(OC)c1 | 1500 | 1500 |
| COc1ccc(NC(=C2C(=O)OC(C)(C)OC2=O)N(Cc2ccc(CC(C)(C)C)cc2)CC2CCCC2c2ccccc2)c(OC)c1 (centres undefined) | 290 | 290 |
| CCCCCC(C)N(Cc1ccc(CC(C)(C)C)cc1)C(Nc1ccc(N(C)C)cc1C)=C1C(=O)OC(C)(C)OC1=O (centres undefined) | 260 | 260 |
| CCCCCc1ccc(CCCCCCCCNC(Nc2ccc(OC)cc2OC)=C2C(=O)OC(C)(C)OC2=O)cc1 | 840 | 839 |
| CC(C)(C)Cc1ccc(CCCCCCCNC(Nc2cc(C(C)(C)C)c(O)c(C(C)(C)C)c2)=C2C(=O)OC(C)(C)OC2=O)cc1 | 240 | 240 |
| COc1ccc(NC(NCCCCCCCCc2ccc(CCC(C)C)cc2)=C2C(=O)OC(C)(C)OC2=O)c(OC)c1 | 3000 | 3000 |
| COc1cc(NC(NCCCCCCCCc2ccc(OCCC(C)C)cc2)=C2C(=O)OC(C)(C)OC2=O)cc(OC)c1OC | 3500 | 3500 |
| CCCCCC(C)N(Cc1ccc(CC(C)(C)C)cc1)C(Nc1ccc(OC)cc1OC)=C1C(=O)OC(C)(C)OC1=O (centres undefined) | 830 | 830 |
| CCCCCC(C)N(Cc1ccc(OC(C)CCC)cc1)C(Nc1ccc(OC)cc1OC)=C1C(=O)OC(C)(C)OC1=O (centres undefined) | 540 | 540 |
| CCCCCC(C)N(Cc1ccc(CC(C)(C)C)cc1)C(Nc1c(C)cc(N(C)C)cc1C)=C1C(=O)OC(C)(C)OC1=O (centres undefined) | 380 | 380 |
| COc1ccc(NC(=C2C(=O)OC(C)(C)OC2=O)N(Cc2ccc(CC(C)C)cc2C)C(CO[SiH](C)C)CC(C)C)c(OC)c1 (centres undefined) | 530 | 530 |
| CCCCC(CC)N(Cc1ccc(CC(C)(C)C)cc1)C(Nc1ccc(OC)cc1OC)=C1C(=O)OC(C)(C)OC1=O (centres undefined) | 540 | 540 |
| COc1ccc(NC(NCCc2ccccc2)=C2C(=O)OC(C)(C)OC2=O)c(OC)c1 | 2800 | 2800 |
| CCCCCC(C)N(Cc1ccc(C(C)(C)C)cc1)C(Nc1cc(OC)c(OC)c(OC)c1)=C1C(=O)OC(C)(C)OC1=O (centres undefined) | 770 | 769 |
| CCCCCC(C)N(Cc1ccc(CC(C)(C)C)cc1)C(Nc1ccc(C)cc1C)=C1C(=O)OC(C)(C)OC1=O (centres undefined) | 490 | 490 |
| COc1cc(OC)c(NC(NCCCCCCCCc2ccc(CC(C)(C)C)cc2)=C2C(=O)OC(C)(C)OC2=O)c(OC)c1 | 700 | 700 |
| CCCCCc1ccc(CN(C(Nc2ccc(N(C)C)cc2C)=C2C(=O)OC(C)(C)OC2=O)C(C)CCCCC)cc1 (centres undefined) | 680 | 242 |
| CN(C)c1ccc(NC(NCCCCCCCCc2ccc(C(C)(C)C)cc2)=C2C(=O)OC(C)(C)OC2=O)cc1 | 1100 | 1100 |
| COc1ccc(NC(NCc2ccc(C(C)(C)C)cc2)=C2C(=O)OC(C)(C)OC2=O)c(OC)c1 | 260 | 260 |
| Cc1cc(N(C)C)cc(C)c1NC(NCCCCCCCCc1ccc(C(C)(C)C)cc1)=C1C(=O)OC(C)(C)OC1=O | 980 | 979 |
| CCCCCc1ccc(CN(C(Nc2ccc(OC)cc2OC)=C2C(=O)OC(C)(C)OC2=O)C(C)CCCCC)cc1 (centres undefined) | 360 | 360 |
| COc1ccc(NC(NCCCCCCCCc2ccc(CC(C)C)cc2)=C2C(=O)OC(C)(C)OC2=O)c(OC)c1 | 910 | 910 |
| COc1cc(NC(NCCCCCCCCc2ccc(C(C)(C)C)cc2)=C2C(=O)OC(C)(C)OC2=O)cc(OC)c1OC | 2800 | 2800 |
